Source: patent publication US4742049A, “Semisynthetic erythromycin antibiotics” (Abbott Laboratories, priority 1986, dated 1988)
In brackets after ≈: the same amount, converted by molar mass. Read-outs that look alike come from different tables or passages of the source.

Assays:
Providencia stuartii = test: antimicrobial spectrum, agar dilution MIC; format: cell-based; settings: strain CMX 640, BHI agar, 20-24 hours
Procedure: (§1) Twelve petri dishes containing successive aqueous dilutions of the test compound mixed with 10 ml of sterilized Brain Heart Infusion agar (Difco 0418-01-5) are prepared. Each plate is inoculated with 1:100 (or 1:10 for slow-growing strains, primarily Micrococcus and Streptococcus) dilutions of up to 32 different microorganisms, using a Steers replicator block. The inoculated plates are incubated at 35°-37° C. for 20-24 hours. In addition, a control plate, using BHI agar containing no test compound, is prepared and incubated at the beginning and end of each test.
(§2) An additional plate containing a compound having known susceptibility patterns for the organisms being tested and belonging to the same antibiotic class as the test compound is also prepared and incubated as a further control, as well as to provide test-to-test comparability.
(§3) After incubation, each disk is read. The MIC is defined as the lowest concentration of drug yielding no growth, a slight haze, or sparsely isolated colonies on the inoculum spot as compared to the growth control.

Pseudomonas aeruginosa = test: antimicrobial spectrum, agar dilution MIC; format: cell-based; settings: Pseudomonas aeruginosa, BHI agar, 20-24 hours
Procedure: as §1, §2, §3

Staph. aureus = test: antimicrobial spectrum, agar dilution MIC; format: cell-based; settings: Staphylococcus aureus, BHI agar, 20-24 hours
Procedure: as §1, §2, §3

Staph. epidermidis = test: antimicrobial spectrum, agar dilution MIC; format: cell-based; settings: Staphylococcus epidermidis
Procedure: as §1, §2, §3

Strep. agalactiae = test: antimicrobial spectrum, agar dilution MIC; format: cell-based; settings: Streptococcus agalactiae, strain CMX 508; BHI agar, 20-24 hours
Procedure: as §1, §2, §3

Strep. bovis = test: antimicrobial spectrum, agar dilution MIC; format: cell-based; settings: Streptococcus equinus, strain A5169; BHI agar, 20-24 hours
Procedure: as §1, §2, §3

Strep. faecium = test: antimicrobial spectrum, agar dilution MIC; format: cell-based; settings: Enterococcus faecium
Procedure: as §1, §2, §3

Strep. pyogenes = test: antimicrobial spectrum, agar dilution MIC; format: cell-based; settings: Streptococcus pyogenes, BHI agar, 20-24 hours
Procedure: as §1, §2, §3

E. coli = test: antimicrobial spectrum, agar dilution MIC; format: cell-based; settings: Escherichia coli, BHI agar, 20-24 hours
Micrococcus luteus = test: antimicrobial spectrum, agar dilution MIC; format: cell-based; settings: 20-24 hours
Lactobacillus Casei = test: antimicrobial spectrum, agar dilution MIC; format: cell-based; settings: Lacticaseibacillus casei, ATCC7469, strain ATCC 7469; BHI agar, 20-24 hours
Ent. aerogenes = test: antimicrobial spectrum, agar dilution MIC; format: cell-based; settings: Klebsiella aerogenes, BHI agar, 20-24 hours
Klebsiella pneumoniae = test: antimicrobial spectrum, agar dilution MIC; format: cell-based; settings: strain 8045, BHI agar, 20-24 hours
Pseudomonas cepacia = test: antimicrobial spectrum, agar dilution MIC; format: cell-based; settings: Burkholderia cepacia, strain 2961; BHI agar, 20-24 hours; read-out: MIC
Procedure: (§4) Erythromycin A was used for this purpose.
(§5) After incubation, each disk is read.

Acinetobacter SP = test: antimicrobial spectrum, agar dilution MIC; format: cell-based; settings: strain CMX 669, BHI agar, 20-24 hours
[1] = system: gut contractions (stomach, duodenum, jejunum); settings: dog, in vivo, iv, 4 mg/kg
Procedure: Compounds of this invention have been tested for gastrointestinal stimulating activity in a dog model at 4 mg/kg intravenously. Contractions in the gut were recorded with surgically implanted strain gauges. […] Ratios were calculated for the stomach, duodenum and jejunum, and a final arithmetic mean index was calculated and reported in Table 1.

Haemophilus influenzae = test: MIC against strains of Haemophilus influenzae; format: cell-based; settings: Haemophilus influenzae, read-out: MIC
Procedure: as §4, §5
In the manner of Example 23, the efficacy of compounds of this invention were tested against numerous strains of Haemophilus influenzae.

gastointestinal motility = test: gastrointestinal motility in sensitive animal models (general statement); format: in vivo; settings: compared with parent erythromycin compound
[2] = strain 3519, BHI agar, 20-24 hours
[3] = strain 3519 RARI, BHI agar, 20-24 hours
[4] = ATCC8043, strain ATCC 8043, BHI agar, 20-24 hours
[5] = ATCC13048, strain ATCC 13048, read-out: MIC

Compound	MIC (Providencia stuartii)	MIC (Pseudomonas aeruginosa; strain 5007)	MIC (Pseudomonas aeruginosa; strain BMH10)	MIC (Pseudomonas aeruginosa; strain K799/WT)	MIC (Staph. aureus; ATCC6538P, strain ATCC 6538P)	MIC (Staph. aureus; strain 45)	MIC (Staph. aureus; strain 45 RAR 2)	MIC (Staph. aureus; strain A5177)	MIC (Staph. aureus; strain CMX 686B)	MIC (Staph. epidermidis; [3])	MIC (Strep. agalactiae)	MIC (Strep. bovis)	MIC (Strep. pyogenes; strain 930)	MIC (Strep. pyogenes; strain EES61)	MIC (E. coli; strain DC-2)	MIC (E. coli; strain H560)	MIC (E. coli; strain JUHL)	MIC (E. coli; strain KNK 437)	MIC (E. coli; strain SS)	MIC (Micrococcus luteus; strain 9341, BHI agar)	further results
CC[C@H]1OC(=O)[C@H](C)[C@@H](O[C@H]2C[C@@](C)(OC)[C@@H](O)[C@H](C)O2)[C@H](C)[C@@H](O[C@@H]2O[C@H](C)C[C@H](N(C)C)[C@H]2O)[C@](C)(OC)C[C@@H](C)C(=O)[C@H](C)[C@H]2N(C3CC3)C(=O)O[C@]12C [Example 5, 11-deoxy-6-O-methyl erythromycin A 11,12-(N-cyclopropyl)cyclic carbamate]	> 100 µg/mL	> 100 µg/mL	100 µg/mL (≈ 123 µM)	> 100 µg/mL	0.39 µg/mL (≈ 0.48 µM)	0.2 µg/mL (≈ 0.246 µM)	0.39 µg/mL (≈ 0.48 µM)	1.56 µg/mL (≈ 1.92 µM)	0.39 µg/mL (≈ 0.48 µM)	0.39 µg/mL (≈ 0.48 µM)	0.02 µg/mL (≈ 0.0246 µM)	0.02 µg/mL (≈ 0.0246 µM)	> 100 µg/mL	0.02 µg/mL (≈ 0.0246 µM)	100 µg/mL (≈ 123 µM)	25 µg/mL (≈ 30.7 µM)	50 µg/mL (≈ 61.5 µM)	100 µg/mL (≈ 123 µM)	0.2 µg/mL (≈ 0.246 µM)	0.05 µg/mL (≈ 0.0615 µM)	MIC (Pseudomonas aeruginosa; strain K799/61): 6.2 µg/mL (≈ 7.63 µM); MIC (Staph. epidermidis; [2]): 0.39 µg/mL (≈ 0.48 µM); MIC (Strep. faecium; [4]): 0.1 µg/mL (≈ 0.123 µM); MIC (Micrococcus luteus; strain 4698, BHI agar): 0.2 µg/mL (≈ 0.246 µM); MIC (Lactobacillus Casei): 0.05 µg/mL (≈ 0.0615 µM); MIC (Ent. aerogenes; [5]): 100 µg/mL (≈ 123 µM); MIC (Klebsiella pneumoniae): 100 µg/mL (≈ 123 µM); MIC (Pseudomonas cepacia): > 100 µg/mL; MIC (Acinetobacter SP): 25 µg/mL (≈ 30.7 µM)
CC[C@H]1OC(=O)[C@H](C)[C@@H](O[C@H]2C[C@@](C)(OC)[C@@H](O)[C@H](C)O2)[C@H](C)[C@@H](O[C@@H]2O[C@H](C)C[C@H](N(C)C)[C@H]2O)[C@](C)(OC)C[C@@H](C)C(=O)[C@H](C)[C@H]2N(Cc3ccccc3)C(=O)O[C@]12C [Example 3, 11-deoxy-6-O-methyl erythromycin A 11,12-(N-benzyl)cyclic carbamate]	> 100 µg/mL	> 100 µg/mL	25 µg/mL (≈ 29 µM)	> 100 µg/mL	0.39 µg/mL (≈ 0.452 µM)	0.1 µg/mL (≈ 0.116 µM)	0.39 µg/mL (≈ 0.452 µM)	0.78 µg/mL (≈ 0.904 µM)	0.39 µg/mL (≈ 0.452 µM)	0.2 µg/mL (≈ 0.232 µM)	0.02 µg/mL (≈ 0.0232 µM)	0.02 µg/mL (≈ 0.0232 µM)	100 µg/mL (≈ 116 µM)	0.02 µg/mL (≈ 0.0232 µM)	25 µg/mL (≈ 29 µM)	6.2 µg/mL (≈ 7.18 µM)	25 µg/mL (≈ 29 µM)	25 µg/mL (≈ 29 µM)	0.39 µg/mL (≈ 0.452 µM)	0.05 µg/mL (≈ 0.0579 µM)	MIC (Pseudomonas aeruginosa; strain K799/61): 3.1 µg/mL (≈ 3.59 µM); MIC (Staph. epidermidis): 0.2 µg/mL (≈ 0.232 µM); MIC (Strep. faecium; ATCC8043): 0.1 µg/mL (≈ 0.116 µM); MIC (Lactobacillus Casei): 0.05 µg/mL (≈ 0.0579 µM); MIC (Ent. aerogenes; [5]): 50 µg/mL (≈ 57.9 µM); MIC (Klebsiella pneumoniae): 25 µg/mL (≈ 29 µM); MIC (Pseudomonas cepacia): 50 µg/mL (≈ 57.9 µM); MIC (Acinetobacter SP): 50 µg/mL (≈ 57.9 µM)
CC[C@H]1OC(=O)[C@H](C)[C@@H](O[C@H]2C[C@@](C)(OC)[C@@H](O)[C@H](C)O2)[C@H](C)[C@@H](O[C@@H]2O[C@H](C)C[C@H](N(C)C)[C@H]2O)[C@](C)(OC)C[C@@H](C)C(=O)[C@H](C)[C@H]2N(C)C(=O)O[C@]12C [Example 4, 11-deoxy-6-O-methyl erythromycin A 11,12-(N-methyl)cyclic carbamate]	> 100 µg/mL	100 µg/mL (≈ 127 µM)	50 µg/mL (≈ 63.5 µM)	100 µg/mL (≈ 127 µM)	0.1 µg/mL (≈ 0.127 µM)	0.1 µg/mL (≈ 0.127 µM)	0.2 µg/mL (≈ 0.254 µM)	0.39 µg/mL (≈ 0.496 µM)	0.1 µg/mL (≈ 0.127 µM)	0.2 µg/mL (≈ 0.254 µM)	0.02 µg/mL (≈ 0.0254 µM)	0.02 µg/mL (≈ 0.0254 µM)	> 100 µg/mL	0.01 µg/mL (≈ 0.0127 µM)	25 µg/mL (≈ 31.8 µM)	12.5 µg/mL (≈ 15.9 µM)	25 µg/mL (≈ 31.8 µM)	50 µg/mL (≈ 63.5 µM)	0.1 µg/mL (≈ 0.127 µM)	0.01 µg/mL (≈ 0.0127 µM)	MIC (Pseudomonas aeruginosa; strain K799/61, read-out: MIC): 0.78 µg/mL (≈ 0.991 µM); MIC (Staph. epidermidis; [2]): 0.2 µg/mL (≈ 0.254 µM); MIC (Strep. faecium; [4]): 0.05 µg/mL (≈ 0.0635 µM); MIC (Micrococcus luteus; strain 4698, BHI agar): 0.05 µg/mL (≈ 0.0635 µM); MIC (Lactobacillus Casei): 0.01 µg/mL (≈ 0.0127 µM); MIC (Ent. aerogenes; ATCC10348, strain ATCC 10348): 50 µg/mL (≈ 63.5 µM); MIC (Klebsiella pneumoniae): 50 µg/mL (≈ 63.5 µM); MIC (Pseudomonas cepacia): 100 µg/mL (≈ 127 µM); MIC (Acinetobacter SP): 12.5 µg/mL (≈ 15.9 µM); Gastrointestinal Motility Index [1]: 1.27
CC[C@H]1OC(=O)[C@H](C)[C@@H](O[C@H]2C[C@@](C)(OC)[C@@H](O)[C@H](C)O2)[C@H](C)[C@@H](O[C@@H]2O[C@H](C)C[C@H](N(C)C)[C@H]2O)[C@](C)(OC)C[C@@H](C)C(=O)[C@H](C)[C@H]2N(CCN(C)C)C(=O)O[C@]12C [Example 9, 11-deoxy-6-O-methyl erythromycin A 11,12-[N-(2-dimethylamino)ethyl]cyclic carbamate]	–	–	–	–	–	–	–	–	–	–	–	–	–	–	–	–	–	–	–	–	MIC (Haemophilus influenzae; ATCC9006, strain ATCC 9006): 0.25 µg/mL (≈ 0.296 µM); MIC (Haemophilus influenzae; ATCC9795, strain ATCC 9795): 0.25 µg/mL (≈ 0.296 µM); MIC (Haemophilus influenzae; ATCC10211, strain ATCC 10211): 0.5 µg/mL (≈ 0.592 µM); MIC (Haemophilus influenzae; ATCC19418, strain ATCC 19418): 0.5 µg/mL (≈ 0.592 µM); MIC (Haemophilus influenzae; strain 504): 1 µg/mL (≈ 1.18 µM); MIC (Haemophilus influenzae; strain 519A): 0.5 µg/mL (≈ 0.592 µM); MIC (Haemophilus influenzae; strain 566A): 0.5 µg/mL (≈ 0.592 µM); MIC (Haemophilus influenzae; strain 588A): 0.25 µg/mL (≈ 0.296 µM); MIC (Haemophilus influenzae; strain 632A): 0.5 µg/mL (≈ 0.592 µM); MIC (Haemophilus influenzae; strain 667A): 0.25 µg/mL (≈ 0.296 µM); MIC (Haemophilus influenzae; strain 747C): 0.25 µg/mL (≈ 0.296 µM); MIC (Haemophilus influenzae; strain 751): 0.25 µg/mL (≈ 0.296 µM); MIC (Haemophilus influenzae; strain 1177): 0.5 µg/mL (≈ 0.592 µM); MIC (Haemophilus influenzae; strain 1435): 0.12 µg/mL (≈ 0.142 µM); MIC (Haemophilus influenzae; strain 5036B): 0.5 µg/mL (≈ 0.592 µM); MIC (Haemophilus influenzae; strain DILL AMP R): 0.25 µg/mL (≈ 0.296 µM); MIC (Haemophilus influenzae; strain SOL AMP R): 0.25 µg/mL (≈ 0.296 µM); MIC (Haemophilus influenzae; strain SPK AMP R): 0.25 µg/mL (≈ 0.296 µM); Gastrointestinal Motility Index [1]: .013; gastointestinal motility and associated side-effects (gastointestinal motility): much less gastointestinal motility and associated side-effects than the parent erythromycin compound
